According to ChEMBL document CHEMBL4339211 (Bioorg Med Chem, 2019):

Tests used:
Type in all cases: functional, cell-based
D(2) dopamine receptor [1] = biological target: T1, D(2) dopamine receptor (Homo sapiens, UniProt P14416); experiment: Antagonist activity at D2 receptor (unknown origin) expressed in CHOK1 cells assessed as inhibition of dopamine-induced calcium flux preincubated for 60 mins at 37 degC followed by 15 mins incubation under room temperature and subsequent dopamine addition measured after 20 secs for 100 secs by calcium-4 dye based FLIPR assay
D(1A) dopamine receptor [2] = biological target: T2, D(1A) dopamine receptor (Homo sapiens, UniProt P21728); experiment: Agonist activity at D1 receptor (unknown origin) expressed in CHOK1 cells assessed as increase in cAMP accumulation at 10 uM measured after 30 mins
D(1A) dopamine receptor [3] = biological target: T2, D(1A) dopamine receptor; experiment: Antagonist activity at D1 receptor (unknown origin) expressed in CHOK1 cells assessed as inhibition of SKF38393-induced cAMP accumulation measured after 30 mins
D(2) dopamine receptor [4] = biological target: T1, D(2) dopamine receptor; experiment: Agonist activity at D2 receptor (unknown origin) expressed in CHOK1 cells assessed as increase in calcium flux at 10 uM incubated for 60 mins at 37 degC followed by 15 mins incubation under room temperature measured after 20 secs for 100 secs by calcium-4 dye based FLIPR assay relative to control

T2 sequence (P21728 whole entry): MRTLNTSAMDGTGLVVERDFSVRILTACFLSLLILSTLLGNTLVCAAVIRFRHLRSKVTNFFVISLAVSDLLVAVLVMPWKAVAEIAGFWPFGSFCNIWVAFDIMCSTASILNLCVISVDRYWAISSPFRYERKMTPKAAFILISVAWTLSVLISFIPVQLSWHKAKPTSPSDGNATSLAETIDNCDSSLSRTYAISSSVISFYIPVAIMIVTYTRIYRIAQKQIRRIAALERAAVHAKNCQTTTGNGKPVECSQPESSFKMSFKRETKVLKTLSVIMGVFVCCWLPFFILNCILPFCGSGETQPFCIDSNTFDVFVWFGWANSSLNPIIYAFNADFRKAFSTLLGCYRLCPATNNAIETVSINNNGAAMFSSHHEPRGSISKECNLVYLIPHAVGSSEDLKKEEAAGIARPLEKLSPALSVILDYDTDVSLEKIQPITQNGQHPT
T1 sequence (P14416 whole entry): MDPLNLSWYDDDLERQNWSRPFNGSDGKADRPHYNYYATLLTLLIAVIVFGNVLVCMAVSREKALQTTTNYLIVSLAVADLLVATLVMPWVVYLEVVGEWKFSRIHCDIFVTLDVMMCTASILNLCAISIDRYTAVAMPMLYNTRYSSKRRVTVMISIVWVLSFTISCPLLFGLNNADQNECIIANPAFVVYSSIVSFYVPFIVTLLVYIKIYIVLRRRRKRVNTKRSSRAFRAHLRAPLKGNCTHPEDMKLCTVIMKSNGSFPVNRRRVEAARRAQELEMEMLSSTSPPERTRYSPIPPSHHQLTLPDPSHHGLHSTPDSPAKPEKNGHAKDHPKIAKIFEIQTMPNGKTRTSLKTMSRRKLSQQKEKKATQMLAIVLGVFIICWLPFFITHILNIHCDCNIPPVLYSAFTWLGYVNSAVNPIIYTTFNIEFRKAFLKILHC

IC50 (D(2) dopamine receptor [1])	Activity (D(1A) dopamine receptor [2])	IC50 (D(1A) dopamine receptor [3])	Activity (D(2) dopamine receptor [4])	Structure (SMILES)
> 10000 nM	-1.05%	> 10000 nM	2.96%	COc1ccc2c(c1O[C@@H]1O[C@H](CO)[C@@H](O)[C@H](O)[C@H]1O)CN1CCc3cc4c(cc3[C@@H]1C2)OCO4
> 10000 nM	-7.46%	> 10000 nM	3.17%	COc1ccc2c(c1O[C@@H]1O[C@H](CO)[C@@H](O)[C@H](O)[C@H]1O)CN1CCc3cc4c(cc3[C@H]1C2)OCO4
420 nM	0%	1080 nM	4.5%	COc1ccc2c(c1OC(C)=O)CN1CCc3cc4c(cc3C1C2)OCO4 (racemic)
7960 nM	-3.69%	> 10000 nM	2.97%	COc1cc(/C=C/C(=O)Oc2c(OC)ccc3c2CN2CCc4cc5c(cc4C2C3)OCO5)ccc1OC(C)=O (racemic)
3110 nM	-4.32%	410 nM	5.52%	COc1cc2c(cc1OC)C1Cc3ccc(OC)c(O)c3CN1CC2 (racemic)
40 nM	-3.17%	630 nM	2.53%	COc1ccc2c(c1OC)CN1CCc3cc(O)c(O)cc3C1C2 (racemic)
> 10000 nM	4.48%	> 10000 nM	2.5%	c1ccc(COc2cccc3c2CC2c4cc5c(cc4CCN2C3)OCO5)cc1 (racemic)
76 nM	-5.41%	390 nM	4.27%	COc1ccc2c(c1O)CN1CCc3cc(O)c(O)cc3C1C2 (racemic)
8810 nM	5.95%	> 10000 nM	6.88%	COc1cc2c(cc1OC)C1Cc3c(cc(O)c(OC)c3OC)CN1CC2 (racemic)
500 nM	-4.41%	1420 nM	2.17%	Oc1ccc2c(c1)CN1CCc3cc4c(cc3C1C2)OCO4 (racemic)
2590 nM	-5.16%	670 nM	3.35%	COc1cc2c(cc1O)CC1c3cc(OC)c(OC)cc3CCN1C2 (racemic)
3580 nM	24.4%	> 10000 nM	3.67%	COc1cc2c(cc1O)C1Cc3cc(OC)c(OC)cc3CN1CC2 (racemic)
1080 nM	-5.75%	7420 nM	1.29%	COc1cc2c(c(OC)c1O)CC1c3cc4c(cc3CCN1C2)OCO4 (racemic)
4940 nM	-3.7%	> 10000 nM	3.81%	COc1cc2c(cc1O)CC1c3cc4c(cc3CCN1C2)OCO4 (racemic)
1530 nM	-3.91%	6510 nM	2.39%	COc1cc2c(cc1OC)C1Cc3ccc(O)cc3CN1CC2 (racemic)
190 nM	1.8%	1030 nM	2.22%	Oc1cccc2c1CC1c3cc4c(cc3CCN1C2)OCO4 (racemic)
6360 nM	-4.17%	> 10000 nM	3.74%	COc1cc2c(cc1OC)C1Cc3c(cc(OC)c(O)c3OC)CN1CC2 (racemic)
450 nM	-7.43%	1630 nM	3.51%	COc1cc2c(cc1OC)[C@@H]1Cc3ccc(OC)c(OC)c3CN1CC2 [TETRAHYDROPALMATINE]
